This is an account of results in ChEMBL document CHEMBL4393695, “Thiazole orange - Spermine conjugate: A potent human telomerase inhibitor comparable to BRACO-19” (Eur J Med Chem, 2019).

The source made the active and inactive calls. The calls are words filed in the database; no cut-off is given here.

What all share (type): subcellular
For assay [1], the system named is HeLa. Put plainly: Inhibition of DNA polymerase activity in human HeLa cell lysate at <=2.5 uM in presence of [32P]-labeled template primer by TRAP assay.
Assay [2] deals with Telomerase reverse transcriptase (Homo sapiens) (UniProt O14746). The experiment in a line: Inhibition of telomerase activity in human HeLa cell lysate at 10 uM in presence of [32P]-labeled template primer by TRAP assay.
The target is the same in assay [3]. The experiment in a line: Inhibition of telomerase activity in human HeLa cell lysate at <=2.5 uM in presence of [32P]-labeled template primer by TRAP assay.
Assay [4] relates to HeLa. Put plainly: Inhibition of DNA polymerase activity in human HeLa cell lysate at 10 uM in presence of [32P]-labeled template primer by TRAP assay.
The target of assay [5] is Telomerase reverse transcriptase (Homo sapiens) (UniProt O14746). Put plainly: Inhibition of telomerase activity in human HeLa cell lysate at 0.039 to 10 uM in presence of [32P]-labeled template primer by TRAP assay.

Telomerase reverse transcriptase (Homo sapiens), sequence (O14746 whole entry): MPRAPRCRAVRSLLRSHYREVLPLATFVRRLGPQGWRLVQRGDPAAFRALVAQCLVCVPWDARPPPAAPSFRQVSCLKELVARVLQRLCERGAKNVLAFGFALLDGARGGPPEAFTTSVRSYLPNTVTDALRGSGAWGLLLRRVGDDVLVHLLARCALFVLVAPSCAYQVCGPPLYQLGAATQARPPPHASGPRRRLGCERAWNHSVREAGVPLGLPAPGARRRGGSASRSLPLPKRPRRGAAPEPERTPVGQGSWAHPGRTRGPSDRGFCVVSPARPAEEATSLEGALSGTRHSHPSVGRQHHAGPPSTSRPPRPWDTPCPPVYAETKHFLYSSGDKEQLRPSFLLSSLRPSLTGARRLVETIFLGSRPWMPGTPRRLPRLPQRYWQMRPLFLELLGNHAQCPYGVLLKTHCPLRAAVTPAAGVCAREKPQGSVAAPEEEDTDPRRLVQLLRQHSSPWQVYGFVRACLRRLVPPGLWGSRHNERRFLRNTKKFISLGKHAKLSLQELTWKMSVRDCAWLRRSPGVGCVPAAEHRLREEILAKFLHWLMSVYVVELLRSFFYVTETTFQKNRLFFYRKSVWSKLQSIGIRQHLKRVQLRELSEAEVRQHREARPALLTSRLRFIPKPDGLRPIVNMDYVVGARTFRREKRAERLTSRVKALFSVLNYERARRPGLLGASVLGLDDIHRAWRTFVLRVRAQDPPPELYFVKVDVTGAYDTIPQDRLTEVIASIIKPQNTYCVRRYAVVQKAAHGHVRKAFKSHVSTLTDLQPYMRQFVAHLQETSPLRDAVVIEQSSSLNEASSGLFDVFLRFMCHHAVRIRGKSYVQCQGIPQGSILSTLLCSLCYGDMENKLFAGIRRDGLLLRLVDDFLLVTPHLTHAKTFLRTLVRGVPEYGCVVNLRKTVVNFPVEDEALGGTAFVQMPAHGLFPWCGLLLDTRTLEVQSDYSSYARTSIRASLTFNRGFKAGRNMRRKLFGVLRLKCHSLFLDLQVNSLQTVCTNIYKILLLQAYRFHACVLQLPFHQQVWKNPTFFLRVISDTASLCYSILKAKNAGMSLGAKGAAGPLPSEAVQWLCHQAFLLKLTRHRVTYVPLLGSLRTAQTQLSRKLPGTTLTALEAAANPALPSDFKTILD

In the case of `CN(C)c1ccc(Nc2c3ccc(NC(=O)CCN4CCCC4)cc3nc3cc(NC(=O)CCN4CCCC4)ccc23)cc1`, the inhibition result in the assay with HeLa [1] is “inactive”. Further, the inhibition entry (in assay [2]; in assay [3]; in the assay on HeLa [4]; in assay [5]) was “Active” in each case.
